Series [1] deals with chickweed (Stellaria media). As to the kind of experiment: Postemergence herbicidal activity. The conditions noted are these: Stellaria media, post-emergence, 336 h, Table 1, visual, after 2 weeks, read-out: Post-emergent % Control STEME; for pest or weed control at 125 ppm: rate 125 ppm; for pest or weed control at 250 ppm: rate 250 ppm. The series is classed as in vivo. The method, then:
(§1) Seeds of the desired test plant species were planted in Grace-Sierra MetroMix® 306 planting mixture, which typically has a pH of 6.0 to 6.8 and an organic matter content of about 30 percent, in plastic pots with a surface area of 64 square centimeters. When required to ensure good germination and healthy plants, a fungicide treatment and/or other chemical or physical treatment was applied. The plants were grown for 7-21 days in a greenhouse with an approximate 15 hr photoperiod which was maintained at about 23-29° C. during the day and 22-28° C. during the night. Nutrients and water were added on a regular basis and supplemental lighting was provided with overhead metal halide 1000-Watt lamps as necessary. The plants were employed for testing when they reached the first or second true leaf stage.
(§2) A weighed amount, determined by the highest rate to be tested, of each test compound was placed in a 20 mL glass vial and was dissolved in 4 mL of a 97:3 v/v (volume/volume) mixture of acetone and dimethyl sulfoxide (DMSO) to obtain concentrated stock solutions. […] The concentrated stock solutions obtained were diluted with an aqueous mixture containing acetone, water, isopropyl alcohol, DMSO, Atplus 411F crop oil concentrate, and Triton X-155 surfactant in a 48.5:39:10:1.5:1.0:0.02 v/v ratio to obtain spray solutions of known concentration. The solutions containing the highest concentration to be tested were prepared by diluting 2 mL aliquots of the stock solution with 13 mL of the mixture and lower concentrations were prepared by serial dilution of the stock solution. Approximately 1.5 mL aliquots of each solution of known concentration were sprayed evenly onto each of the test plant pots using a DeVilbiss atomizer driven by compressed air pressure of 2 to 4 psi ([…]) to obtain thorough coverage of each plant. Control plants were sprayed in the same manner with the aqueous mixture. In this test an application rate of 1 ppm results in the application of approximately 1 g/Ha.
(§3) The treated plants and control plants were placed in a greenhouse as described above and watered by sub-irrigation to prevent wash-off of the test compounds. After 2 weeks the condition of the test plants as compared with that of the untreated plants was determined visually and scored on a scale of 0 to 100 percent where 0 corresponds to no injury and 100 corresponds to complete kill.

For series [2], the system named is cocklebur (Xanthium strumarium). The series can be described thus: Postemergence herbicidal activity. To be noted: Xanthium strumarium, post-emergence, 336 h, Table 1, visual, after 2 weeks, read-out: Post-emergent % Control XANST; for pest or weed control at 125 ppm: rate 125 ppm; for pest or weed control at 250 ppm: rate 250 ppm. The series is classed as in vivo. The method, then: as §1, §2, §3

Series [3] deals with wild buckwheat (Polygonum convolvulus). The series can be described thus: Postemergence herbicidal activity. The conditions noted are these: Fallopia convolvulus, post-emergence, 336 h, Table 1, visual, after 2 weeks, read-out: Post-emergent % Control POLCO; for pest or weed control at 125 ppm: rate 125 ppm; for pest or weed control at 250 ppm: rate 250 ppm. It counts as in vivo. The method, then:
as §1, §2, §3

For series [4], the system named is morningglory (Ipomoea hederacea). The series can be described thus: Preemergence herbicidal activity. It counts as in vivo. The conditions noted are these: Ipomoea, 504 h, Table 6 (headed Post-emergent; text: preemergence), after 3 weeks, read-out: % Control IPOHE; for pest or weed control at 560 ppm: rate 560 ppm; for pest or weed control at 280 ppm: rate 280 ppm; for pest or weed control at 70 ppm: rate 70 ppm. The source says: (§4) Seeds of the desired test plant species were planted in a soil matrix prepared by mixing a loam soil (43 percent silt, 19 percent clay, and 38 percent sand, with a pH of about 8.1 and an organic matter content of bout 1.5 percent) and sand in a 70 to 30 ratio. The soil matrix was contained in plastic pots with a surface area of 113 square centimeters. When required to ensure good germination and healthy plants. a fungicide treatment and/or other chemical or physical treatment was applied.
(§5) A weighed amount, determined by the highest rate to be tested, of each test compound was placed in a 20 mL glass vial and was dissolved in 4 mL of a 97:3 v/v (volume/volume) mixture of acetone and dimethyl sulfoxide to obtain concentrated stock solutions. […] The stock solutions obtained were diluted with a 99.9:0.1 mixture of water and Tween® […] surfactant to obtain application solutions of known concentration. The solutions containing the highest concentration to be tested were prepared by diluting 2 mL aliquots of the stock solution with 15 mL of the mixture and lower concentrations were prepared by serial dilution of the stock solution. A 2.5 mL aliquot of each solution of known concentration was sprayed evenly onto the soil surface (113 sq. cm) of each seeded pot using a Cornwall 5.0 mL glass syringe fitted with a TeeJet TN-3 hollow cone nozzle to obtain thorough coverage of the soil in each pot. Control pots were sprayed in the same manner with the aqueous mixture.
(§6) The treated pots and control pots were placed in a greenhouse maintained with an approximate 15 hr photoperiod and temperatures of about 23-29° C. during the day and 22-28° C. during the night. Nutrients and water were added on a regular basis and supplemental lighting was provided with overhead metal halide 1000-Watt lamps as necessary. The water was added by top-irrigation. After 3 weeks the condition of the test plants that germinated and grew as compared with that of the untreated plants that germinated and grew was determined visually and scored on a scale of 0 to 100 percent where 0 corresponds to no injury and 100 corresponds to complete kill or no germination.

In series [5] the test system is pigweed (Amaranthus retroflexus). The series can be described thus: Preemergence herbicidal activity. It counts as in vivo. The conditions noted are these: Amaranthus retroflexus, 504 h, Table 6 (headed Post-emergent; text: preemergence), after 3 weeks, read-out: % Control AMARE; for pest or weed control at 560 ppm: rate 560 ppm; for pest or weed control at 280 ppm: rate 280 ppm; for pest or weed control at 70 ppm: rate 70 ppm.
Text: as §4, §5, §6

Series [6] deals with velvetleaf (Abutilon theophrasti). As to the kind of experiment: Preemergence herbicidal activity. The series is classed as in vivo. To be noted: Abutilon theophrasti, 504 h, Table 6 (headed Post-emergent; text: preemergence), after 3 weeks, read-out: % Control ABUTH; for pest or weed control at 560 ppm: rate 560 ppm; for pest or weed control at 280 ppm: rate 280 ppm; for pest or weed control at 70 ppm: rate 70 ppm.
Text: as §4, §5, §6

As usually defined, the melting point is the temperature, or range, at which the solid turns liquid. The compound `O=C(O)c1nc(Cl)cc(N2CCCC2)c1Cl` [Compound 36, 4-pyrrolidino-3,6-dichloropyridine-2-carboxylic acid] had a melting point of 153 to 155 °C. The pest or weed control at 125 ppm in series [1] stood at 40%. For the same compound, the pest or weed control at 125 ppm in series [2] was 50%. In series [3], the pest or weed control at 125 ppm was 80%. In addition, the pest or weed control at 560 ppm in series [4] is 80%. The pest or weed control at 560 ppm in series [5] came out at 80%. The pest or weed control at 560 ppm in series [6] came to 95%.

Consider `O=C(O)c1nc(Cl)cc([N+](=O)[O-])c1Cl` [Compound 39, 4-Nitro-3,6-dichloropyridine-2-carboxylic acid], for which the melting point was 192 to 193 °C. Further, in series [1], the pest or weed control at 125 ppm is 30%. Moreover, in series [2], the pest or weed control at 125 ppm turned out to be 85%. The pest or weed control at 125 ppm in series [3] was 90%. The pest or weed control at 560 ppm in series [4] was 100%. Moreover, in series [5], the pest or weed control at 560 ppm stood at 100%. Moreover, the pest or weed control at 560 ppm in series [6] stood at 100%.

Turning to `Nc1cc(Cl)nc(C(=O)O)c1Br` [Compound 44, 4-Amino-3-bromo-6-chloropyridine-2-carboxylic acid], the melting point was 175 °C (dec.). Moreover, the pest or weed control at 125 ppm in series [1] worked out at 90%. For the same compound, in series [2], the pest or weed control at 125 ppm was determined as 90%. Moreover, the pest or weed control at 125 ppm in series [3] came out at 95%. The pest or weed control at 560 ppm in series [4] worked out at 100%. In series [5], the pest or weed control at 560 ppm came to 100%. Also, the pest or weed control at 560 ppm in series [6] amounted to 100%.

Consider `Nc1c(Cl)c(C(=O)O)nc(C(F)(F)F)c1Cl` [Compound 45, 4-Amino-3,5-dichloro-6-trifluoromethylpyridine-2-carboxylic acid], for which the melting point is 178 °C (dec.). Further, the pest or weed control at 250 ppm in series [1] turned out to be 0%. Further, in series [2], the pest or weed control at 250 ppm stood at 90%. Besides, in series [3], the pest or weed control at 250 ppm was found to be 80%. Besides, the pest or weed control at 125 ppm in series [4] (rate 125 ppm) came to 100%. Besides, the pest or weed control at 125 ppm in series [5] (rate 125 ppm) was determined as 100%. The pest or weed control at 125 ppm in series [6] (rate 125 ppm) was determined as 90%.

With `Nc1cc(Oc2cc(Cl)cc(Cl)c2)nc(C(=O)O)c1Cl` [Compound 47, 4-Amino-3-chloro-6-(3,5-dichlorophenoxy)pyridine-2-carboxylic acid], the melting point stood at 196 °C. Moreover, the pest or weed control at 250 ppm in series [1] is 100%. For the same compound, the pest or weed control at 250 ppm in series [2] was found to be 100%. The pest or weed control at 250 ppm in series [3] was determined as 100%. Further, in series [4], the pest or weed control at 280 ppm is 0%. For the same compound, the pest or weed control at 280 ppm in series [5] turned out to be 100%. In series [6], the pest or weed control at 280 ppm was determined as 95%.

`Nc1cc(Oc2ccccc2)nc(C(=O)O)c1Cl` [Compound 48, 4-amino-3-chloro-6-phenoxypyridine-2-carboxylic acid] showed a melting point of 178 °C. Besides, the pest or weed control at 250 ppm in series [1] came out at 60%. The pest or weed control at 250 ppm in series [2] stood at 100%. Further, in series [3], the pest or weed control at 250 ppm was 100%. The pest or weed control at 280 ppm in series [4] was found to be 100%. The pest or weed control at 280 ppm in series [5] was 30%. Also, in series [6], the pest or weed control at 280 ppm worked out at 100%.

Take `COc1ccc(Oc2cc(N)c(Cl)c(C(=O)O)n2)cc1` [Compound 49, 4-amino-3-chloro-6-(4-methoxyphenoxy)-pyridine-2-carboxylic acid]: the melting point stood at 174 °C. Besides, the pest or weed control at 250 ppm in series [1] amounted to 0%. Further, in series [2], the pest or weed control at 250 ppm amounted to 60%. Further, the pest or weed control at 250 ppm in series [3] turned out to be 70%. Also, the pest or weed control at 70 ppm in series [4] stood at 0%. In series [5], the pest or weed control at 70 ppm was found to be 0%. In addition, in series [6], the pest or weed control at 70 ppm stood at 0%.

The compound `Cc1ccc(Oc2cc(N)c(Cl)c(C(=O)O)n2)cc1` [Compound 50, 4-amino-3-chloro-6-(4-methylphenoxy)-pyridine-2-carboxylic acid] showed a melting point of 173 °C. In addition, the pest or weed control at 250 ppm in series [1] worked out at 0%. Further, in series [2], the pest or weed control at 250 ppm was found to be 60%. In addition, the pest or weed control at 250 ppm in series [3] is 70%. In series [4], the pest or weed control at 70 ppm came to 0%. In addition, in series [5], the pest or weed control at 70 ppm came to 0%. The pest or weed control at 70 ppm in series [6] was found to be 0%.

`Cc1cccc(Oc2cc(N)c(Cl)c(C(=O)O)n2)c1` [Compound 52, 4-amino-3-chloro-6-(3-methylphenoxy)-pyridine-2-carboxylic acid]: the melting point is 169 °C. In addition, the pest or weed control at 250 ppm in series [1] is 20%. Besides, in series [2], the pest or weed control at 250 ppm stood at 70%. In addition, the pest or weed control at 250 ppm in series [3] stood at 90%. For the same compound, the pest or weed control at 560 ppm in series [4] stood at 70%. Further, the pest or weed control at 560 ppm in series [5] worked out at 20%. In addition, the pest or weed control at 560 ppm in series [6] stood at 50%.

`Nc1cc(Oc2cccc(Cl)c2)nc(C(=O)O)c1Cl` [Compound 53, 4-amino-3-chloro-6-(3-chlorophenoxy)-pyridine-2-carboxylic acid] had a melting point of 176 °C. Further, the pest or weed control at 250 ppm in series [1] was 100%. Moreover, the pest or weed control at 250 ppm in series [2] turned out to be 100%. In addition, the pest or weed control at 250 ppm in series [3] was 100%. Moreover, the pest or weed control at 560 ppm in series [4] was determined as 100%. Besides, in series [5], the pest or weed control at 560 ppm was 0%. Moreover, the pest or weed control at 560 ppm in series [6] was found to be 100%.
